Reference: ChEMBL document CHEMBL6178014, “Discovery and Administration Optimization of Novel Selective CDK9 Inhibitor, 1-7a-B1, for Improved Pharmacokinetics and Antitumor Efficacy In Vivo” (J Med Chem, 2025)

Tests used:
[1] = target: CDK9/cyclin T1 (Homo sapiens, UniProt P50750); test: Inhibition of His-tagged full length human recombinant CDK9/cyclinT1 using KTFCGTPEYLAPEVRREPRILSEEEQEMFRDFDYIADWC as substrate incubated for 60 mins by ADP-Glo kinase assay; type: protein-complex assay
[2] = test system: HCT-116; test: Antiproliferative activity against human HCT-116 cells assessed as inhibition of cell growth incubated for 48 hrs by CCK8 assay; type: functional
[3] = test system: HT-29; test: Antiproliferative activity against human HT-29 cells assessed as inhibition of cell growth incubated for 48 hrs by CCK8 assay; type: functional
[4] = Metabolic stability in human liver microsome assessed as half life at 100 uM pre-incubated with compound for 60 mins followed by NADPH addition and measured up to 60 mins by LC-MS/MS analysis; type: ADME; settings: liver microsomes, time < 120 min
[5] = target: CYP2C9 (Homo sapiens, UniProt P11712); test: Inhibition of CYP2C9 in human liver microsome at 10 uM pre-incubated with compound for 10 mins in presence of NADPH-regenerating system by LC-MS/MS analysis relative to control; type: ADME; settings: liver microsomes
Sequence of CYP2C9 (P11712 whole entry): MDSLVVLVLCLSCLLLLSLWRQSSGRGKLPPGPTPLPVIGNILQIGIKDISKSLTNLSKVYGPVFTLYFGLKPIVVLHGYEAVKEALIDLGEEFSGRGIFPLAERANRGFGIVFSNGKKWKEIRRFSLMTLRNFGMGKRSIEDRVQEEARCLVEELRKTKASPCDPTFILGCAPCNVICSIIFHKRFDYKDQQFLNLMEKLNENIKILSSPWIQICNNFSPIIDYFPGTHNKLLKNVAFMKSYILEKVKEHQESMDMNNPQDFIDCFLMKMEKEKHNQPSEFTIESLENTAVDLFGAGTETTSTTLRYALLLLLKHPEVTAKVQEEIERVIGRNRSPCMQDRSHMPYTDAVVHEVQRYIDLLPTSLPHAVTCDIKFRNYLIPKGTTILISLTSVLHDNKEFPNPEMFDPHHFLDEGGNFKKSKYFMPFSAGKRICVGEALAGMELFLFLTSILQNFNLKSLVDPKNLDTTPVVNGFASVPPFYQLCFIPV

[6] = test system: HCT-116; test: Antiproliferative activity against human HCT-116 cells assessed as reduction in colony formation incubated for 14 days by crystal violet staining based analysis; type: functional, cell-based; settings: dose 50-400 nM, time 14.0 day
[7] = target: CYP2C19 (Homo sapiens, UniProt P33261); test: Inhibition of CYP2C19 in human liver microsome at 10 uM pre-incubated with compound for 10 mins in presence of NADPH-regenerating system by LC-MS/MS analysis relative to control; type: ADME; settings: liver microsomes
Sequence of CYP2C19 (P33261 whole entry): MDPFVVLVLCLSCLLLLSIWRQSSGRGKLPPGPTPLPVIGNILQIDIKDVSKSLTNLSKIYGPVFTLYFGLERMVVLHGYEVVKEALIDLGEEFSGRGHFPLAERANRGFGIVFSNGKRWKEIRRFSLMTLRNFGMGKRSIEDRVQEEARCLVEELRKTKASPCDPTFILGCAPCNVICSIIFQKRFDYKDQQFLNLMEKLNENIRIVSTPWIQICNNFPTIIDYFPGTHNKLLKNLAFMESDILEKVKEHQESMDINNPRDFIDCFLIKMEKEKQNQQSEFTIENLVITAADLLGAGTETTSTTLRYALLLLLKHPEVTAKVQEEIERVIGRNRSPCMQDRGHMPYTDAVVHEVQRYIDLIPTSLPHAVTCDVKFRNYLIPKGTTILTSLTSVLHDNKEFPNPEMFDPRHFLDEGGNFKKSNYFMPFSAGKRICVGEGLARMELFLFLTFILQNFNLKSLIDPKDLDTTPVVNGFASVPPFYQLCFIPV

[8] = Stability in human plasma assessed as half life at 100 uM measured up to 120 mins by LC-MS/MS analysis; type: ADME, cell-free
[9] = target: CYP1A2 (Homo sapiens, UniProt P05177); test: Inhibition of CYP1A2 in human liver microsome at 10 uM pre-incubated with compound for 10 mins in presence of NADPH-regenerating system by LC-MS/MS analysis relative to control; type: ADME; settings: liver microsomes
Sequence of CYP1A2 (P05177 whole entry): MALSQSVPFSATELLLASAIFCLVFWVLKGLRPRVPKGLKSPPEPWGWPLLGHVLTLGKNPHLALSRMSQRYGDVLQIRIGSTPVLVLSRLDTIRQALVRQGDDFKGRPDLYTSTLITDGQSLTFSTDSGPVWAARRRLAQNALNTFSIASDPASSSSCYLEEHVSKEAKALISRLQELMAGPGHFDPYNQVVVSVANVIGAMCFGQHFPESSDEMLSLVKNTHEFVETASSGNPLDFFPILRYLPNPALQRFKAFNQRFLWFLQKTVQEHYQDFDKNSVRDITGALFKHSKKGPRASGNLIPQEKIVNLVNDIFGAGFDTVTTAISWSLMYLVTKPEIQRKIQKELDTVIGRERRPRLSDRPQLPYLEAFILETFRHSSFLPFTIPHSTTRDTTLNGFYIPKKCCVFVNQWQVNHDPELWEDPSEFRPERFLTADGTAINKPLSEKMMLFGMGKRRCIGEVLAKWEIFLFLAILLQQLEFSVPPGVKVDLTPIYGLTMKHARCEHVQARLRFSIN

Sequence of CDK9/cyclin T1 (O60563 whole entry): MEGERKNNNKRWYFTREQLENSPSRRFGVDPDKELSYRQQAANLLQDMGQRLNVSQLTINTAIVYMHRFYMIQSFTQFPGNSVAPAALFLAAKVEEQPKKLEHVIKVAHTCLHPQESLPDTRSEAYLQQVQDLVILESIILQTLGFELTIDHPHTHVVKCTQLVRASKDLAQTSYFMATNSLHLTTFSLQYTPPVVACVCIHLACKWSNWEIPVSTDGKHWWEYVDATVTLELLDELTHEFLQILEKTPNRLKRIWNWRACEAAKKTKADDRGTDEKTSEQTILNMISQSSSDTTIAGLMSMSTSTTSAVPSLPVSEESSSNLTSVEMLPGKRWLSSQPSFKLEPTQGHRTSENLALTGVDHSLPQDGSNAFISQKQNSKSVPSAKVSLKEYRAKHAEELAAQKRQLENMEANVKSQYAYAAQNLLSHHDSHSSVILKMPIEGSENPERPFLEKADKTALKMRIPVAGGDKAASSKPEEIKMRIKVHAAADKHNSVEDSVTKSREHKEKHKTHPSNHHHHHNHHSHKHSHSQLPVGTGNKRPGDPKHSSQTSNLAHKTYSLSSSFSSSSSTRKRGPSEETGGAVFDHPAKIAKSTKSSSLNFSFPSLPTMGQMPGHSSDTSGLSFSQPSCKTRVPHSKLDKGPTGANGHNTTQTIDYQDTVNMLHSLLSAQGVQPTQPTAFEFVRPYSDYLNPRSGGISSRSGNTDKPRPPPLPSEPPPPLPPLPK
Sequence of CDK9/cyclin T1 (P50750 whole entry): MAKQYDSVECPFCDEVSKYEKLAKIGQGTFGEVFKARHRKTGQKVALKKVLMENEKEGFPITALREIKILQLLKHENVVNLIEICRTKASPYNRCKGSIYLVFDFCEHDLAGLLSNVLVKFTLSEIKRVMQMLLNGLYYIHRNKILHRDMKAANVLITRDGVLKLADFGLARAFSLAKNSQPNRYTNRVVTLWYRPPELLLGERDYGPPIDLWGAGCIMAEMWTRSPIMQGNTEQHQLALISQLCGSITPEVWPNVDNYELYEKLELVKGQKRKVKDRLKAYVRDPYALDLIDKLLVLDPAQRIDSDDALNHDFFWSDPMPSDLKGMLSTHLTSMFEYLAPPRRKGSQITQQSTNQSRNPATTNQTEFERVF

Row | SMILES | IC50 [1] [nM] | GI50 [2] [nM] | GI50 [3] [nM] | other results
1 | CCN1CCN(C(=O)c2ccc(NC(=O)Nc3cc(-c4ccc(F)cc4OC(C)C)ccn3)cc2)CC1 | > 50 | > 1000 | > 1000 | 
2 | CC(C)Oc1cc(F)ccc1-c1ccnc(NC(=O)Nc2ccc(C(=O)N3CCN(C)CC3)cc2)c1 | > 50 | > 1000 | > 1000 | 
3 | C[C@]12CC[C@H]3[C@@H](CCC4=CC(=O)CC[C@@]43C)[C@@H]1CC[C@@H]2O [TESTOSTERONE] |  |  |  | half-life at 100 µM [4]: 7.8 min
4 | Nc1ccc(S(=O)(=O)Nc2ccnn2-c2ccccc2)cc1 [SULFAPHENAZOLE] |  |  |  | inhibition at 10 µM [5]: 87.2%
5 | O=C(Nc1cccc(C(=O)N2CCOCC2)c1)Nc1cc(-c2cccc(F)c2)ccn1 | > 50 | > 1000 | > 1000 | 
6 | COc1ccc(-c2ccnc(NC(=O)Nc3cccc(C(=O)N4CCOCC4)c3)c2)cc1 | > 50 | > 1000 | > 1000 | 
7 | O=C(Nc1cccc(C(=O)N2CCOCC2)c1)Nc1cc(-c2ccccc2F)ccn1 | > 50 | > 1000 | > 1000 | 
8 | CC(C)Oc1cc(F)ccc1-c1ccnc(NC(=O)Nc2cccc(C(=O)N3CCOCC3)c2)c1 | 21 | 370 | 990 | 
9 | O=C(Nc1cccc(C(=O)N2CCOCC2)c1)Nc1cc(-c2ccc(F)cc2)ccn1 | > 50 | > 1000 | > 1000 | 
10 | CCN1CCN(C(=O)c2cccc(NC(=O)Nc3cc(-c4ccc(F)cc4OC(C)C)ccn3)c2)CC1 | 16.5 | 200 | 570 | 
11 | O=C(Nc1cccc(C(=O)N2CCOCC2)c1)Nc1cc(-c2ccc(F)cc2OCC2CCCC2)ccn1 | 59.1 | > 1000 | > 1000 | 
12 | O=C(Nc1cccc(C(=O)N2CCOCC2)c1)Nc1cc(-c2ccc(F)c(F)c2)ccn1 | > 50 | > 1000 | > 1000 | 
13 | Cc1ncc(-c2ccnc(Nc3ccc(S(C)(=O)=O)cc3)n2)n1C(C)C [AZD-5438] |  | 480 | 700 | Activity [6]: Dose-dependent-effect
14 | O=C(O)Cc1ccccc1Nc1c(Cl)cccc1Cl [DICLOFENAC] |  |  |  | half-life at 100 µM [4]: 6.4 min
15 | CC(C)Oc1cc(F)ccc1-c1ccnc(NC(=O)Nc2cccc(C(=O)N3CCN(C(C)C)CC3)c2)c1 | > 50 | 960 | 670 | 
16 | O=C(Nc1cccc(C(=O)N2CCOCC2)c1)Nc1cc(-c2ccc(F)cc2F)ccn1 | > 50 | > 1000 | > 1000 | 
17 | CC(=O)N1CCN(C(=O)c2cccc(NC(=O)Nc3cc(-c4ccc(F)cc4OC(C)C)ccn3)c2)CC1 | > 50 | > 1000 | > 1000 | 
18 | CC(C)Oc1cc(F)ccc1-c1ccnc(NC(=O)Nc2ccc(C(=O)N3CCCC3)cc2)c1 | > 50 | > 1000 | > 1000 | 

Row | SMILES | IC50 [1] [nM] | GI50 [2] [nM] | GI50 [3] [nM] | other results
19 | CCC1(c2ccccc2)NC(=O)N(Cc2ccccc2)C1=O (single isomer, unassigned; (+)) |  |  |  | inhibition at 10 µM [7]: 88.3%
20 | Cc1ccc(-c2ccnc(NC(=O)Nc3cccc(C(=O)N4CCOCC4)c3)c2)cc1 | > 50 | > 1000 | > 1000 | 
21 | COc1cc(F)ccc1-c1ccnc(NC(=O)Nc2cccc(C(=O)N3CCOCC3)c2)c1 | 27.8 | > 1000 | > 1000 | 
22 | CC(C)Oc1cc(F)ccc1-c1ccnc(NC(=O)Nc2ccc(C(=O)N3CCN(C(C)C)CC3)cc2)c1 | > 50 | > 1000 | > 1000 | 
23 | O=C(Nc1cccc(C(=O)N2CCOCC2)c1)Nc1cc(-c2cccc(Cl)c2)ccn1 | 35.9 | > 1000 | > 1000 | 
24 | CC(C)Oc1cc(F)ccc1-c1ccnc(NC(=O)Nc2cccc(C(=O)N3CCCN(C)CC3)c2)c1 | > 50 | > 1000 | > 1000 | 
25 | COc1ccccc1-c1ccnc(NC(=O)Nc2cccc(C(=O)N3CCOCC3)c2)c1 | 45.9 | > 1000 | > 1000 | 
26 | O=C(Nc1cccc(C(=O)N2CCOCC2)c1)Nc1cc(-c2ccc(F)cc2OCC2CCCCC2)ccn1 | 88.1 | > 1000 | > 1000 | 
27 | CCOc1cc(F)ccc1-c1ccnc(NC(=O)Nc2cccc(C(=O)N3CCOCC3)c2)c1 | 30.4 | > 1000 | > 1000 | 
28 | CC(C)Oc1cc(F)ccc1-c1ccnc(NC(=O)Nc2ccc(C(=O)N3CCOCC3)cc2)c1 | > 50 | > 1000 | > 1000 | 
29 | CC(C)Oc1cc(F)ccc1-c1ccnc(NC(=O)Nc2cccc(C(=O)N3CCCC3)c2)c1 | 35.8 | > 1000 | 180 | 
30 | O=C(Nc1cccc(C(=O)N2CCOCC2)c1)Nc1cc(-c2ccc(Cl)cc2F)ccn1 | > 50 | > 1000 | > 1000 | 
31 | CC(C)Oc1cc(F)ccc1-c1ccnc(NC(=O)Nc2ccc(C(=O)N3CCC(F)(F)CC3)cc2)c1 | > 50 | > 1000 | > 1000 | 
32 | O=C(Nc1cccc(C(=O)N2CCOCC2)c1)Nc1cc(-c2cc(F)c(F)c(F)c2)ccn1 | > 50 | > 1000 | > 1000 | 
33 | O=C(Nc1cccc(C(=O)N2CCOCC2)c1)Nc1cc(-c2cc(F)cc(F)c2)ccn1 | > 50 | > 1000 | > 1000 | 
34 | CC(=O)N1CCN(C(=O)c2ccc(NC(=O)Nc3cc(-c4ccc(F)cc4OC(C)C)ccn3)cc2)CC1 | > 50 | > 1000 | > 1000 | 
35 | CC(C)[N+](C)(CCOC(=O)C1c2ccccc2Oc2ccccc21)C(C)C.[Br-] [PROPANTHELINE BROMIDE] |  |  |  | half-life at 100 µM [8]: 15.6 min
36 | O=c1cc(-c2ccccc2)oc2c1ccc1ccccc12 [ALPHA-NAPHTHOFLAVONE] |  |  |  | inhibition at 10 µM [9]: 88.4%
